“Also recorded” adds a separate entry of the source. Where a SMILES comes first, the peptide text is derived from it. The star is where a group is joined. Cbz = O=C(OCc1ccccc1)*
Key:
Format in all cases: cell-based
[1] = system: Raji Burkitt's lymphoma cells; test: Bortezomib-induced killing, with or without Salubrinal
[2] = system: HEp3 HNSCC cells; test: as above
[3] = system: diffuse B-cell lymphoma U937 cells; test: as above; settings: 4 nM Bortezomib
[4] = system: RPMI8226 cells; test: Cell cycle analysis by propidium iodide staining and flow cytometry; settings: for cell death (sub-G0 population): MG-132 400 nM or Bortezomib 4 nM, 24-48 hours
Method: (§1) Reagents, antibodies, RT-PCR, cell lines and tissue culture, plasmids. Proteasome inhibitor (MG-132, Velcade®; each commercially available) treatments were performed using 400 nM MG-132 or 4 nM Bortezomib (Velcade®) for 24 hours. The drug was then removed by serial washes with PBS and the remaining viable cells were replated. Salubrinal treatments were performed using the drug at 5 or 10 μg/ml, as indicated, for 24 hours. RPMI8226 cells contain a c-MYC insertion on t(16;22)(q32;q11):der16; U266B1 cells (t(11;14)) were from ATCC. Cells were cultured according to ATCC recommendations. Antibodies (identified by the antigen specifically recognized): p-Rb, Rb, p-eIF2α, eIF2α, GCN2, p-GCN2, p-PKR and PKR from Cell Signaling (Beverly, Mass.), p-PERK and PERK from Santa Cruz Biotechnology (Santa Cruz, Calif.), BiP from BD (San Jose, Calif.), GAPDH from Calbiochem (Beverly, Mass.), and β-tubulin from Abcam (Cambridge, Mass.). Total RNA was extracted using Trizol (Invitrogen, Carlsbad, Calif.). Primer sequences were published previously (Sequeira, et al., PLoS ONE 2(7):e615 2007, incorporated herein by reference in its entirety). The pCLBabe-eIF2αS51D plasmid was provided by Dr. David Schubert (Salk Institute, La Jolla, Calif.) and can be constructed using known techniques. Transfection of RPMI8226 cells was performed using Amaxa technology according to the manufacturer's instructions (Gaithersburg, Md.).
Cell cycle analysis, label retention assay. Cell cycle analysis was performed using propidium iodide (PI)/RNAse staining buffer from BD according to the manufacturer's instruction. For label retention and viability quantification, cells were treated with proteasome inhibitors or DMSO for 24 hours, then stained with 50 nM CFDA/SE (Molecular Probes, Eugene, Oreg.) for 15 minutes and replated. Prior to analysis, cells were stained using Hoechst-33342 (10 μg/ml) for 15 minutes at 4° C. to determine cell viability. Cells were then fixed using 3% paraformaldehyde for 20 minutes and analyzed by flow cytometry (LSR-II from BD).

[5] = system: K-562 chronic myeloid leukemia cells; test: Bortezomib-induced killing, with or without Salubrinal
[6] = system: eIF2α; test: Western blot for eIF2α phosphorylation in RPMI8226 cells; settings: for eIF2α phosphorylation: single agent, acute phase (Salubrinal 8 hours; MG-132 8-24 hours)
Method: as §1, with “Salubrinal treatments were performed using the drug at 5 or 10 μg/ml, as indicated, for 24 hours.” left out
(§2) Viability assay, Immunoblotting. Cell viability was assessed using trypan blue. Immunoblotting was performed using convention techniques, as described previously Aguirre-Ghiso, et al., Cancer Res. 63(7):1684-1695 2003, incorporated herein by reference in its entirety.
(§3) Image quantification and statistical analysis. Image quantification was performed using ImageJ from NIH. Statistical analyses were performed using Prism 4.0 from GraphPad Software (La Jolla, Calif.) and the Student's t-test.

[7] = system: RPMI8226 cells; test: Viability assay (trypan blue)
Method: as §1, with “Salubrinal treatments were performed using the drug at 5 or 10 μg/ml, as indicated, for 24 hours.” left out
as §2

[8] = system: U937 cells; test: Bortezomib-induced killing, with or without Salubrinal
[9] = system: CHOP mRNA; test: RT-PCR for CHOP mRNA in RPMI8226 cells; settings: acute combination of Salubrinal and Bortezomib (4 nM, 8 hours)
Method: as §1, with “Proteasome inhibitor (MG-132, Velcade®; each commercially available) treatments were performed using 400 nM MG-132 or 4 nM Bortezomib (Velcade®) for 24 hours.” left out, “Salubrinal treatments were performed using the drug at 5 or 10 μg/ml, as indicated, for 24 hours.” left out
as §3

[10] = system: U266B1 cells; test: Viability assay (trypan blue); settings: Salubrinal combined with MG-132 or Bortezomib, 24 hours
Method: as §1, with “Transfection of RPMI8226 cells was performed using Amaxa technology according to the manufacturer's instructions (Gaithersburg, Md.).” left out
Viability assay, Immunoblotting. Cell viability was assessed using trypan blue. […]

[11] = Bortezomib combined with Salubrinal

SMILES	induction of killing ([1]; Bortezomib alone)	induction of killing ([2]; Bortezomib alone)	sensitivity to Bortezomib [3]	cell death (sub-G0 population) [4]	sensitivity to Bortezomib ([5]; 4 nM Bortezomib)	eIF2α phosphorylation [6]	number of cells in G0-G1 in cells surviving proteasome inhibition ([4]; MG-132 400 nM or Bortezomib 4 nM for 24 hours, then washout, control about 35%)	absolute number of viable cells after drug washout and replating ([7]; RPMI8226, 400 nM MG-132 for 24 hours, then washed)	induction of killing [1, 11]	induction of killing [2, 11]	p-eIF2α levels ([6]; Salubrinal combined with proteasome inhibitor, 8 hours)	enhancement of Bortezomib-induced killing by Salubrinal [8]	CHOP mRNA [9]	cell death [10]	basal viability or growth ([7]; RPMI8226, 5 μM Salubrinal alone)	cell death ([7]; RPMI8226, Salubrinal combined with MG-132 or Bortezomib, 24 hours)	reduction in the number of viable cells ([7]; arrested cells surviving proteasome inhibition, 5 μM Salubrinal, 24 hours)	enhancement of Bortezomib-induced killing by Salubrinal [5]
CC(C)C[C@H](NC(=O)[C@H](Cc1ccccc1)NC(=O)c1cnccn1)B(O)O [Bortezomib]	neither Bortezomib alone nor its combination with Salubrinal was effective	neither Bortezomib alone nor its combination with Salubrinal was effective	highly sensitive	strongly induced cell death	intermediately sensitive													
CC(C)C[C@@H](C=O)NC(=O)[C@H](CC(C)C)NC(=O)[C@H](CC(C)C)NC(=O)OCc1ccccc1 [MG-132] (Cbz-Leu-Leu-Leu-aldehyde)				strongly induced cell death		increased eIF2α-phosphorylation	55-65%	remained constant for 7 days										
O=C(/C=C/c1ccccc1)NC(NC(=S)Nc1cccc2cccnc12)C(Cl)(Cl)Cl (centres unmarked) [Salubrinal]						increased phosphorylation of eIF2α			neither Bortezomib alone nor its combination with Salubrinal was effective	neither Bortezomib alone nor its combination with Salubrinal was effective	highest levels of p-eIF2α	neither of these cell lines was susceptible	strong induction	70-90%	no significant induction of cell death; also recorded: no effect	70-90%	approximately 10 fold	neither of these cell lines was susceptible

Source: US20120142634A1, “Method of Treating Cancer with a Combination of a Proteasome Inhibitor and Salubrinal” (MOUNT SINAI SCHOOL OF MEDICINE OF NEW YORK UNIVERSITY, priority 2008, published 2012)
